According to patent US11925690B2, “Bifunctional molecules for targeting Rpn11” (AMPHISTA THERAPEUTICS LTD, priority 2018, dated 2024):

Columns and labels:
Format in all cases: cell-based
Brd2 = Brd2 (Homo sapiens, UniProt P25440); assay: Time-dependent BET degradation, immunoblot; parameters: endogenous in cells; host or cells: HEK293 (CRL-1573), HeLa (CCL-2); conditions: HeLa, Brd2, 1 μM
Description: Immunoblotting. Proteins were separated by SDS-PAGE on NuPage 4-12% Bis-Tris gels, followed by transfer to Amersham Protran 0.45 NC nitrocellulose membrane (GE Healthcare) using wet transfer. Membranes were blocked using 5% w/v milk in Tris-buffered saline (TBS) with 0.1% Tween-20. Blots were probed (overnight at 4 °C) using anti-Brd2 (Abcam ab139690, 1:2,000 dilution), anti-Brd3 (Abcam ab50818, 1:500 dilution), and anti-Brd4 (Abcam ab128874, 1:1,000 dilution) primary antibodies, as appropriate. The next day, blots were washed with TBST and incubated (1 h at Room temperature) with anti-Tubulin hFAB-rhodamine (BioRad, 12004166) primary antibody, and either anti-rabbit IRDye 800CW (Licor 1:1,000 dilution) or anti-mouse IRDye 800CW (Licor 1:1,000 dilution) secondary antibody. Blots were developed using a Bio-Rad ChemiDoc MP Imaging System, and band quantification was performed using Image Studio software (LiCor). Band intensities were normalized to the tubulin loading control and reported as % of the average 0.1% DMSO vehicle intensity. Degradation data was plotted and analysed using Prism (Graphpad, version 8).
HEK293 (0.5×10^6) cells were seeded in standard 6-well plates (2 mL medium) overnight before treatment with compounds at 1 μM concentration, with a final DMSO concentration of 0.1% v/v. After incubation for the desired time (0-24 hrs), cells were washed with DPBS (Gibco) and lysed using 85 μL RIPA buffer (Sigma-Aldrich) supplemented with complete Mini EDTA-free protease inhibitor cocktail (Roche) and benzonase. Lysates were clarified by centrifugation (20000 g, 10 min, 4° C.) and the total protein content of the supernatant was quantified using a Bradford colorimetric assay. Samples were prepared using equal amounts of total protein and LDS sample buffer (Invitrogen). Band intensities were normalized to the tubulin loading control and reported as % of the average 0.1% DMSO vehicle intensity. Degradation data was plotted and analysed using Prism (Graphpad, version 8).
MZ1 and 11JQ17 were used at 1 μM (4 h) for positive and negative controls, respectively. […]

Brd4 = biological target: T1, Brd4 (Homo sapiens, UniProt O60885); assay: Mechanistic evaluation: Brd4 degradation after inhibitor pre-treatment; conditions: HEK293, 1 μM degrader 4 h
T1 construct: immunoblot analysis of Brd4 following 4 h treatment of HEK293 cells; endogenous in cells; host or cells: HEK293 (CRL-1573)
Description: HeLa (5×10^5) and HEK293 (1×10^6) cells were seeded in standard 6-well plates (2 mL medium) overnight before pre-treatment with inhibitors (10 μM bortezomib, 10 μM capzimin, 10 μM JQ1). After a 0.5 h pre-incubation time, cells were subsequently treated with vehicle, 1 μM MZ1 or 1 μM 11JQ15, yielding a final overall DMSO concentration of 0.2% v/v. After 4 h incubation, cells were washed with DPBS (Gibco) and lysed using 85 μL RIPA buffer (Sigma-Aldrich) supplemented with cOmplete Mini EDTA-free protease inhibitor cocktail (Roche) and benzonase. Lysates were clarified by centrifugation (20000 g, 10 min, 4° C.) and the total protein content of the supernatant was quantified using a Bradford colorimetric assay. Samples were prepared using equal amounts of total protein and LDS sample buffer (Invitrogen).
Brd4 band intensities were normalized to tubulin loading control and reported in FIG. 6B as % of the average 0.1% DMSO vehicle intensity. Each bar is mean±SEM of three independent experiments performed in duplicate (n=3).

HEK293 cells = assay: Unbiased whole proteome analysis by TMT-labelling MS; conditions: HEK293, 1 μM, 4 h, n=3
Description: HEK293 (2.2×10 6) cells were seeded in 10 cm plates (10 mL medium) overnight before treatment with 1 μM compound for a final DMSO concentration of 0.1% v/v. After 4 h incubation time, cells were washed with 2× with DPBS (Gibco) and lysed using 500 μL lysis buffer (100 mM Tris, 4% (w/v) SDS, pH 8.0) supplemented with cOmplete Mini EDTA-free protease inhibitor cocktail (Roche) and benzonase. Lysates were briefly sonicated (2×10 s), clarified by centrifugation (20000 g, 10 min, 4° C.) and the total protein content of the supernatant was quantified using a BCA assay (Thermo Fisher Scientific).
Sample processing, digestion, desalting, labelling, and fractionation were performed at Fingerprint Proteomics (University of Dundee) as described previously [Gadd et al. 10.1038/nchembio.2329]. FIG. 7 depicts fold change of abundance of 7882 proteins comparing 11JQ15 to DMSO treatment (left) and comparing 1 μM 11JQ17 to DMSO treatment (right), as well as their respective p-values (t-test; n=3).

Sequence of Brd2 (P25440 whole entry): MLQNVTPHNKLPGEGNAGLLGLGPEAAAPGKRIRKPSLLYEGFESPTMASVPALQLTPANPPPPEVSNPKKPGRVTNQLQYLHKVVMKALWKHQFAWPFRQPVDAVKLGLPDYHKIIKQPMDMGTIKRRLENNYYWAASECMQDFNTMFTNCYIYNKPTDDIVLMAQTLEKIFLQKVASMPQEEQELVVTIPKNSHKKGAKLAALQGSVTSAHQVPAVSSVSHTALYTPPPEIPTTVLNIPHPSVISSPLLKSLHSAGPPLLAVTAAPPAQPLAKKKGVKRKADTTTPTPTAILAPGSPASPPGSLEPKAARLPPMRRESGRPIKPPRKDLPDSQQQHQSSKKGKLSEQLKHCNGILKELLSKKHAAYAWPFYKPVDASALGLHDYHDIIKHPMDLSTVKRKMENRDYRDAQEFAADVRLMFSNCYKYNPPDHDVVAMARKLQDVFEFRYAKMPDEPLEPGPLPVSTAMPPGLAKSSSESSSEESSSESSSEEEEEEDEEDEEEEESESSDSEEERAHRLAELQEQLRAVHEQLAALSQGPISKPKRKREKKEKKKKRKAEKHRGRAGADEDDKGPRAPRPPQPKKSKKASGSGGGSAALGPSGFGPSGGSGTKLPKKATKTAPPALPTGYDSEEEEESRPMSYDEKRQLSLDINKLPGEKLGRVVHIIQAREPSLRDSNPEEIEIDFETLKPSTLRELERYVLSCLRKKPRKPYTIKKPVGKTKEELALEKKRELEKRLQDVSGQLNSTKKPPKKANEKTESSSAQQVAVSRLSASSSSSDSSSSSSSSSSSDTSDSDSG

Structure (SMILES) | Dmax at 1 µM (Brd2) | Abs. T1/2 (Brd2; time to deplete 50% of the protein relative to DMSO) | T1/2 (Brd2; time to reach 50% of the Dmax) | Brd4 degradation in the presence of JQ1 (Brd4; 10 μM JQ1 pre-treatment 0.5 h) | Brd4 degradation in the presence of bortezomib (Brd4; 10 μM bortezomib pre-treatment 0.5 h) | Brd4 degradation in the presence of capzimin (Brd4; 10 μM capzimin pre-treatment 0.5 h) | fold change of abundance of 7882 proteins vs DMSO (FIG. 7) (HEK293 cells)
Cc1sc2c(c1C)C(c1ccc(Cl)cc1)=N[C@@H](CC(=O)NCCCCNC(=O)c1cc(S)c3ncc(C(=O)NCCc4nccs4)cc3c1)c1nnc(C)n1-2 [Example 11JQ7] | 50% | 4 h | 4 h | – | – | – | –
Cc1sc2c(c1C)C(c1ccc(Cl)cc1)=N[C@@H](CC(=O)NCCOCCNC(=O)c1cc(SC(=O)c3ccccc3)c3ncc(C(=O)NCCc4nccs4)cc3c1)c1nnc(C)n1-2 [Example 11JQ15] | – | – | – | completely blocked | completely blocked | significantly blocked | selective degradation of Brd2, Brd3 and Brd4
